According to US5028727A, “Platinum-(IV)-diamine complex” (Nederlandse Organisatie Voor …, priority 1988, dated 1991):
“Also recorded” adds a separate entry of the source.

Legend:
tumours = details: Rosenberg et al., Nature 222 (1969); cited from earlier work
M5076 sarcoma = test: Action against subcutaneously implanted M5076 sarcoma; assay type: in vivo, BDF1 mice; details: day 5, 9, 13 and 17
Method: The complex was also assessed for anti-tumour action against subcutaneously implanted M5076 sarcoma. BDF1 mice, 8 per group, were inoculated subcutaneously with a fragment of a M5076 tumour. The mice were treated intravenously starting 5 days after the implantation and again on days 9, 13 and 17. […] Four doses of the complex were tested. A comparison group treated with physiological saline solution and groups treated with cis-platinum are included in this experiment. The mice were assessed daily for survival and the tests were ended after 75 to 80 days.

A2780/124 = test: In vitro cytotoxicity, A2780/124 sub-line resistant to cis-platinum; assay type: cell-based, human; details: for IC50: A2780/124, 72 hours incubation, crystal violet
Method: (§1) Logarithmically growing cells were harvested by mild trypsinisation and 4,000 cells were added to a microtitre plate with 96 wells (Costar). […] Formalin (10%) in a phosphate-buffered physiological saline solution was added and the cells were fixed for 10 minutes.

B16 melanoma = test: Action against B16 melanoma; assay type: in vivo, BDF1 mice; details: day 1-9
Method: BDF1 mice, 10 per group, are inoculated intraperitoneally with 0.5 ml of a 10% (weight/vol) homogeneous tissue suspension of B16 melanoma. Intraperitoneal treatment with the active compound was started one day after the implantation and continued daily for a total of 9 days. The control group treated with a physiological saline solution and groups treated with cis-platinum were included in each experiment. The mice were assessed daily for survival and tests were stopped after 60 days. The mean survival time of the mice treated with the active agent relative to that of the comparison (% T/C) was used as a measure for the anti-tumour action. A compound is regarded as active with a % T/C of 125%.
=Dose is mg/kg per injection administered i.p. on day 1-9

[1] = system: A2780 human ovary carcinoma; test: In vitro cytotoxicity, A2780 human ovary carcinoma; assay type: cell-based; details: 72 hours incubation, crystal violet
Method: as §1

A2780/DDP = test: In vitro cytotoxicity, A2780/DDP sub-line resistant to cis-platinum; assay type: cell-based, human; details: for IC50: A2780/DDP, 72 hours incubation, crystal violet
Method: as §1

L1210 murine leukaemia = test: Activity against L1210 murine leukaemia; assay type: in vivo, CDF1 mice; details: for % T/C: once on day 1
Method: The platinum complex was investigated for anti-tumour action against L1210 murine leukaemia. CDF1 mice with a weight of 20 g were inoculated intraperitoneally with 10^6 ascitic cells of L1210 leukaemia. The administration of the active complex was started the day following the intraperitoneal implantation of the tumour. The complex was administered in diverse amounts by intraperitoneal injections. Groups of 6 mice were used for each dose and they were treated with a single dose of the complex on the treatment day. A group of ten control mice treated with a physiological saline solution was included in the experiment. Mice treated with cis-diamine-dichloro-platinum (cis-platinum) were included as positive comparisons. The mice were weighed before the treatment and again on the fifth or sixth day and the average change in weight was taken as a measure of the toxicity. The animals were assessed daily for mortality and the experiments were ended after 30 days. The tumour activity was determined on the basis of % T/C, which is the ratio of mean survival time of the group treated with the active complex relative to the mean survival time of the control group treated with a physiological saline solution times 100. The mice treated with physiological saline solution usually have a mean survival time of 7 days. A compound is regarded as active when this gives a T/C ≥125%.
=Dose is mg/kg administered i.p., once on day 1.

[2] = system: HCT-116 human colon carcinoma; test: In vitro cytotoxicity, HCT-116 human colon carcinoma; assay type: cell-based; details: HCT116; 72 hours incubation; crystal violet
Method: as §1

B16-F10 murine melanoma = test: In vitro cytotoxicity, B16-F10 murine melanoma; assay type: cell-based; details: 72 hours incubation, crystal violet
Method: as §1

[3] = system: tumour cells resistant to cis-platinum (A2780/124 and A2780/DDP); test: Action against tumour cells resistant to cis-platinum; assay type: cell-based, human
Method: For cis-platinum the corresponding values are 10 and 12.6 respectively.
as §1

[4] = resistance criterion: ratio ≥4.0

Row | SMILES | % T/C (M5076 sarcoma; 3 mg/kg i.v.) [%] | % T/C (M5076 sarcoma; 4 mg/kg i.v.) [%] | IC50 (A2780/124) [mg/L] | % T/C (B16 melanoma; 0.4 mg/kg per injection i.p.) [%] | % T/C (B16 melanoma; 0.8 mg/kg per injection i.p.) [%] | % T/C (B16 melanoma; 1.6 mg/kg per injection i.p.) [%] | % T/C (B16 melanoma; 2.4 mg/kg per injection i.p.) [%] | IC50 [1] [mg/L] | IC50 (A2780/DDP) [mg/L] | % T/C (L1210 murine leukaemia; 4 mg/kg i.p.) [%] | % T/C (L1210 murine leukaemia; 6 mg/kg i.p.) [%] | % T/C (L1210 murine leukaemia; 8 mg/kg i.p.) [%] | IC50 [2] [mg/L] | IC50 (B16-F10 murine melanoma) [mg/L] | also measured
1 | N.N.[Cl][Pt][Cl] [Cis-platinum, cis-diamine-dichloroplatinum] | 134 | 135 | 23 | 117 | 137 | 171 | 146 | 2.3 | 28 | 131 | 138 | 131 | 8.5 | 9.8 | anti-tumour activity (tumours): very strong anti-tumour activity; T-C (mean time for tumours to reach 1 gram, treated relative to untreated) (M5076 sarcoma; 3 mg/kg i.v.): 18.3 days; T-C (mean time for tumours to reach 1 gram, treated relative to untreated) (M5076 sarcoma; 4 mg/kg i.v.): 16.3 days; % T/C (M5076 sarcoma; 5 mg/kg i.v.): 131%; T-C (mean time for tumours to reach 1 gram, treated relative to untreated) (M5076 sarcoma; 5 mg/kg i.v.): 20.5 days; % T/C (M5076 sarcoma; 6 mg/kg i.v.): 121%; T-C (mean time for tumours to reach 1 gram, treated relative to untreated) (M5076 sarcoma; 6 mg/kg i.v.): 20 days; ratio IC50 A2780/124 to IC50 A2780 (A2780/124; [4]): 10; ratio IC50 A2780/DDP to IC50 A2780 (A2780/DDP; [4]): 12.6; % T/C (L1210 murine leukaemia; 10 mg/kg i.p.): 138%
2 | NCC1(CN)CCCC1.O=S(=O)([O-])[O-].[Cl][Pt+2][Cl] [TNO-40, Cis-sulphato-trans-dichloro-1,1-bis(aminomethyl)cyclopentane-platinum-(IV)] | 126 | 125 | 21 | 137 | 163 | 139 | 83 | 6.4 | 23 | 193 | 186 | 180 | 16 | 7.4 | toxicity (M5076 sarcoma; 5 mg/kg i.v.): toxic; toxicity (M5076 sarcoma; 6 mg/kg i.v.): toxic; % T/C (B16 melanoma; 0.2 mg/kg per injection i.p.): 127%; action against cell lines resistant to cis-platinum [3]: exhibits an anti-tumor action; also recorded: surprisingly good action; % T/C (L1210 murine leukaemia; 2,5 mg/kg i.p.): 179%; anti-tumour action against L1210 murine leukaemia (L1210 murine leukaemia; active = T/C ≥125%, all doses investigated): active at all doses investigated
